In patent publication US12220411B1, “Application of PTGDS inhibitor in preparation of drug for treating cataracts” (THE EYE HOSPITAL OR WENZHOU MEDICAL UNIVERSITY, priority 2023, dated 2025):

Tests used:
lens epithelial cells [1] = test: MDA content measurement (oxidative stress injury); format: cell-based, human
Description: MDA is an important index of oxidative stress, and measurement on the content of the MDA reflects a degree of an oxidative stress injury. After addition of different concentrations of PTGDS (FIG. 10A) and PGD2 (FIG. 10B), values of MDA were measured.

lens epithelial cells [2] = test: Apoptosis of lens epithelial cells cultured with H2O2; format: cell-based, human; conditions: 10 μM AT-56 added to 200 μM H2O2 (FIG. 11)
Text: If the lens epithelial cells suffer from the oxidative stress injury, excessive ROS may accumulate in the cells, which can cause apoptosis until generation of cataracts.

lens epithelial cells [3] = test: ROS fluorescence staining in H2O2 epithelial cell oxidation model; format: cell-based, human; conditions: 200 μM H2O2 and 10 µM AT-56 (FIG. 9)
HLEC-B3 cell line = test: CCK8 cell activity with AT-56 added; format: cell-based, human
Description: AT-56 was added to the cell line.

rat lens = test: In vitro oxidative opacity model for a rat lens (lens organ culture)
lens epithelial cells [4] = test: ROS fluorescence staining after addition of PTGDS or PGD2; format: cell-based, human

C1=Cc2ccccc2C(=C2CCN(CCCCc3nn[nH]n3)CC2)c2ccccc21 [AT-56, 4-dibenzo[a,d]cyclohepten-5-ylidene-1-[4-(2H-tetrazol-5-yl)-butyl]-piperidine]
production of the MDA (lens epithelial cells [1]; AT-56 added to 200 μM H2O2 (FIG. 10C)): effectively reduce production of the MDA | apoptosis of lens epithelial cells (lens epithelial cells [2]): effectively reduce apoptosis | ROS production in H2O2 epithelial cell oxidation model (lens epithelial cells [3]): inhibit lens epithelial cells from producing ROS | cell activity (CCK8) (HLEC-B3 cell line; 7 μM AT-56, versus DMSO): higher than that with the addition of DMSO | cell activity (CCK8) (HLEC-B3 cell line; 10 μM AT-56, versus DMSO): higher than that with the addition of DMSO | progression of the cataracts (lens opacity) (rat lens; 200 μM H2O2 + 7 or 10 μM AT-56 for 12 h (FIGS. 12A-D)): alleviated progression of the cataracts | degree of the cataracts (lens opacity) (rat lens; 200 μM H2O2 for 12 h, then 7 or 10 μM AT-56 for 24 h (FIGS. 12E-G)): effectively reduce the degree of the cataracts

CCCCC[C@H](O)/C=C/[C@H]1C(=O)C[C@H](O)[C@@H]1C/C=C\CCCC(=O)O [PGD2, prostaglandin D2]
content of MDA (lens epithelial cells [1]; different concentrations of PGD2 (FIG. 10B)): increased with the increase of the concentration | levels of ROS produced by the lens epithelial cells (lens epithelial cells [4]; PGD2 0.1, 0.4, 0.7, 1.0 nM versus DMSO (FIG. 8)): increased, and were concentration-dependent

B1: PTGDS: prostaglandin H2 (PGH2) D-isomerase protein added to lens epithelial cells at 100-1000 pg/mL (protein, UniProt P41222 23-190, looked up)
Prostaglandin-H2 D-isomerase: APEAQVSVQPNFQQDKFLGRWFSAGLASNSSWLREKKAALSMCKSVVAPATDGGLNLTSTFLRKNQCETRTMLLQPAGSLGSYSYRSPHWGSTYSVSVVETDYDQYALLYSQGSKGPGEDFRMATLYSRTQTPRAELKEKFTAFCKAQGFTEDTIVFLPQTDKCMTEQ
content of MDA (lens epithelial cells [1]; different concentrations of PTGDS (FIG. 10A)): increased with the increase of the concentration | levels of ROS produced by the lens epithelial cells (lens epithelial cells [4]; PTGDS 100, 400, 700, 1000 pg/mL versus DMSO control (FIG. 7)): increased, and were concentration-dependent
